The text below walks through data of ChEMBL document CHEMBL1122481, “Substituted (2-phenoxyphenyl)acetic acids with antiinflammatory activity. 2” (J Med Chem, 1983).

SMILES strings stand for the structures. Bounds are passed on as bounds.

Series [1] concerns Rattus norvegicus. The experiment in a line: Antiinflammatory activity in rats, at a dose of 0.08 mg/kg po, using adjuvant-induced arthritis test. Format: functional.
The species entered for series [2] is Rattus norvegicus. In words: Potency measured relative to that of fenclofenac. It counts as functional.
For series [3], the system named is Rattus norvegicus. The experiment in a line: Antiinflammatory activity in rats, at a dose of 10 mg/kg po(significant toxicity at 100 mg/kg), by adjuvant-induced arthritis test. Format: functional.
A short description of series [4]: Median lethal dose using 10 rats per dose. Format: ADME, organism-based. To be noted: rat, in vivo.
Series [5] deals with Rattus norvegicus. The experiment in a line: Antiinflammatory activity in rats, at a dose of 10 mg/kg po(showed some toxicity at this dose level), using adjuvant-induced arthritis test. Format: functional.
The test system of series [6] is Rattus norvegicus. The experiment in a line: Antiinflammatory activity in rats, at a dose of 10 mg/kg po, activity expressed as minimum ulcerogenic dose(MUD) for a period of 24 hr; Value ranges from (100-200). It counts as functional.
The species named for series [7] is Rattus norvegicus. In words: Potency measured relative to that of fenclofenac. It counts as functional.
Series [8] concerns Rattus norvegicus. In words: Antiinflammatory activity in rats, at a dose of 2 mg/kg po, using adjuvant-induced as arthritis test. It counts as functional.
Series [9] has as its system Rattus norvegicus. The experiment in a line: Antiinflammatory activity in rats, at a dose of 10 mg/kg po(significant toxicity at 100 mg/kg), activity expressed as minimum ulcerogenic dose(MUD) for a period of 24 hr; Value ranges from (200-400). It counts as functional.
Series [10] relates to Rattus norvegicus. In words: Antiinflammatory activity in rats, at a dose of 100 mg/kg po, using adjuvant-induced arthritis test. Format: functional.
Series [11] deals with Rattus norvegicus. The experiment in a line: Antiinflammatory activity in rats, at a dose of 100 mg/kg po, activity expressed as minimum ulcerogenic dose(MUD) for a period of 24 hr; Value ranges from (400-800). It counts as functional.
The species named for series [12] is Rattus norvegicus. The experiment in a line: Antiinflammatory activity in rats, activity expressed as minimum ulcerogenic dose(MUD) for a period of 24 hr. Format: functional.

Regarding `O=C(O)Cc1ccccc1Nc1c(Cl)c(Cl)cc(Cl)c1Cl`, the inhibition in vivo (commonly the change of the read-out against control, counted positive when it falls) at 0.08 mg/kg with Rattus norvegicus [1] was found to be 18%.

As for `O=C(O)Cc1ccccc1Oc1c(Cl)cc(Cl)c(Cl)c1Cl`, the Relative potency in the series listed under Rattus norvegicus [2] amounted to 8. Further, the Inhibition – broadly, the share of the control response that was lost under treatment – with Rattus norvegicus [3] is reported as 43%.

For `O=C(O)Cc1ccccc1Sc1c(Cl)c(Cl)cc(Cl)c1Cl`, the Relative potency in the series listed under Rattus norvegicus [2] amounted to 0.21. Moreover, the inhibition in vivo at 0.08 mg/kg with Rattus norvegicus [1] was below 22%.

`O=C(O)Cc1ccccc1Oc1c(Cl)c(Cl)cc(Cl)c1Cl`: the LD50 – broadly, the dose expected to kill half of the subjects tested – in series [4] stood at 303 mg/kg. The inhibition in vivo at 10 mg/kg in the series on Rattus norvegicus [5] was 44%. In the series on Rattus norvegicus [6], this compound displayed an MUD of 200 mg/kg. This compound returned a Relative potency in the series listed under Rattus norvegicus [7] of 40. Moreover, the inhibition in vivo at 2 mg/kg in the series with Rattus norvegicus [8] turned out to be 38%.

As for `O=C(O)Cc1ccccc1Oc1c(Cl)ccc(Cl)c1Cl`, in the series listed under Rattus norvegicus [2], the Relative potency amounted to 14. For the same compound, the MUD with Rattus norvegicus [9] is 400 mg/kg. In addition, in the series on Rattus norvegicus [3], the Inhibition came to 51%.

For `O=C(O)Cc1ccccc1Oc1ccc(Cl)cc1Cl` [FENCLOFENAC], the inhibition in vivo at 100 mg/kg in the series with Rattus norvegicus [10] was 35%. In addition, the Relative potency in the series listed under Rattus norvegicus [7] turned out to be 1. The compound further returned an MUD in the series with Rattus norvegicus [11] of 800 mg/kg.

Regarding `COc1ccc2c(c1)c(CC(=O)O)c(C)n2C(=O)c1ccc(Cl)cc1` [INDOMETHACIN], the median lethal dose (LD50) in series [4] turned out to be 19.8 mg/kg. This compound also yielded an MUD in the series listed under Rattus norvegicus [12] of 1.25 mg/kg.

For the compound `O=C(O)Cc1ccccc1[S+]([O-])c1c(Cl)c(Cl)cc(Cl)c1Cl` (stereo unspecified), in the series with Rattus norvegicus [1], the inhibition in vivo at 0.08 mg/kg came out at 19%.

In the series listed under Rattus norvegicus [2], `O=C(O)Cc1ccccc1Oc1cc(Cl)cc(Cl)c1Cl` displayed a Relative potency of 1.5. The Inhibition in the series with Rattus norvegicus [3] is given as 21%.
